The text below walks through data of article PMC10495264 (Nature Cell Biology, 2023).

One experiment concerns the target T1, TORC1 (Saccharomyces cerevisiae, UniProt P35169).
T1 construct: made in house; host or cells: S. cerevisiae strain NIC005 ([RL170-2c] LEU2:GFP-TOR1)
The experiment can be described thus: Yeast TORC1 kinase activity assays (radioactive IVK, Lst4^Loop substrate). The format is biochemical. As to conditions: for In vitro TORC1 kinase assay - CoA compounds, relative activity, Mean: Fig. 8b; for In vitro TORC1 kinase assay - Mal-CoA/ATP competition, relative activity, Mean: Fig. 8h. On the procedure: TORC1 was purified from yeast cells and radioactive IVK assays were performed essentially as previously described. Briefly, kinase reactions (total volume, 30 μl) were performed with 400 ng of purified His6–Lst4^Loop protein and 60 ng TORC1 in kinase buffer (50 mM HEPES NaOH pH 7.5 and 150 mM NaCl). […] All reactions were carried out at 30 °C for 10 min and stopped with the addition of 3×sample buffer (50 mM Tris–HCl pH 6.8, 5% SDS, 0.05% bromophenol blue, 630 mM DTT and 30% glycerol) and heating at 65 °C for 10 min. Proteins were separated by SDS–PAGE and stained in-gel with SYPRO Ruby (S4942, Sigma-Aldrich) as the loading control. Substrate phosphorylation was analysed by autoradiography using a Typhoon FLA 9500 phosphorimager (GE Healthcare) and the raw density of the signals was quantified using the gel analysis tool of ImageJ.

The target of experiment [1] is T2, mTORC1 (Homo sapiens, UniProt P42345).
T2 construct: endogenous mTORC1 complexes were purified from HEK293FT cells; endogenous in cells; host or cells: HEK293FT (immunoprecipitation of endogenous mTOR); the 4E-BP1 substrate was made in E. coli BL21 RP
The experiment can be described thus: Mammalian mTORC1 kinase activity assays (IVK, 4E-BP1 substrate). The format is biochemical. On the procedure:
Following the last wash step with CHAPS IP wash buffer, the beads were washed once with kinase wash buffer (25 mM HEPES pH 7.4 and 20 mM KCl) and excess liquid was removed using a Hamilton syringe—the final bead volume was approximately 10 μl. Kinase reactions were prepared by adding 10 μl of 3×kinase assay buffer (75 mM HEPES KOH pH 7.4, 60 mM KCl and 30 mM MgCl2) to the beads. […] The reactions were incubated at 30 °C for 30 min, and stopped by the addition of one volume of 2×SDS loading buffer and boiling (5 min, 95 °C). […] Signals were quantified using the gel analysis tool of ImageJ and are shown as the phospho-4E-BP1^T37/46/4E-BP1 ratio.

Another experiment has as its system Mal-CoA levels. The experiment can be described thus: fapR/fapOp-yeGFP Mal-CoA reporter system, GFP immunoblot. As to conditions: yeast, untreated = 1, n = 4, Fig. 2b. The format is cell-based, Saccharomyces cerevisiae.
For experiment [2], the system named is total protein malonylation. The experiment can be described thus: Total protein malonylation (Mal-K immunoblot) in HEK293FT/HEK293T cells. The format is cell-based, human.
Experiment [3] concerns mTORC1. The experiment can be described thus: mTORC1 activity in MCF-7 cells, p-S6K^T389/S6K immunoblot. To be noted: cerulenin 50 μM 2 or 4 h. The format is cell-based, human.
In experiment [4] the test system is FASN, ACC1 and mTOR total protein levels. The experiment can be described thus: FASN, ACC1 and mTOR total protein levels, immunoblot. The class given is cell-based, human. On the procedure: For standard SDS–PAGE and immunoblotting experiments, cells from a well of a 12-well plate were lysed in 250 μl of ice-cold Triton lysis buffer (50 mM Tris pH 7.5, 1% Triton X-100, 150 mM NaCl, 50 mM NaF, 2 mM Na-vanadate and 0.011 g ml^−1 β-glycerophosphate) supplemented with 1×PhosSTOP phosphatase inhibitors (cat. no. 4906837001, Roche) and 1×cOmplete protease inhibitors (cat. no. 11836153001, Roche) for 10 min on ice. The samples were clarified by centrifugation (20,000g, 15 min, 4 °C) and the supernatants were boiled in 1×SDS sample buffer (5×SDS sample buffer: 350 mM Tris–HCl pH 6.8, 30% glycerol, 600 mM DTT, 12.8% SDS and 0.12% bromophenol blue). The band intensities were quantified using the ImageJ software.
Data in graphs are shown as the mean ± s.e.m. *P < 0.05, **P < 0.005, ***P < 0.0005. Source numerical data and unprocessed blots are provided. Source data
(In general: A western blot detects proteins with antibodies after separation by electrophoresis.)

Experiment [5] relates to RagC lysosomal localization. The experiment can be described thus: Co-localization of RagC with LAMP2, confocal microscopy. As to conditions: Ceru 4h, mean of individual cells (ED Fig. 8f); DMSO mean 0.563571. The format is cell-based, human.
In experiment [6] the test system is mTOR and FASN malonylation. The experiment can be described thus: Malonylation of immunopurified mTOR and FASN (anti-Mal-K) from HEK293FT cells. The class given is cell-based, human.
Procedure: Protein malonylation was assayed by immunoblotting using a Mal-K-specific antibody.

T1 sequence (P35169 whole entry): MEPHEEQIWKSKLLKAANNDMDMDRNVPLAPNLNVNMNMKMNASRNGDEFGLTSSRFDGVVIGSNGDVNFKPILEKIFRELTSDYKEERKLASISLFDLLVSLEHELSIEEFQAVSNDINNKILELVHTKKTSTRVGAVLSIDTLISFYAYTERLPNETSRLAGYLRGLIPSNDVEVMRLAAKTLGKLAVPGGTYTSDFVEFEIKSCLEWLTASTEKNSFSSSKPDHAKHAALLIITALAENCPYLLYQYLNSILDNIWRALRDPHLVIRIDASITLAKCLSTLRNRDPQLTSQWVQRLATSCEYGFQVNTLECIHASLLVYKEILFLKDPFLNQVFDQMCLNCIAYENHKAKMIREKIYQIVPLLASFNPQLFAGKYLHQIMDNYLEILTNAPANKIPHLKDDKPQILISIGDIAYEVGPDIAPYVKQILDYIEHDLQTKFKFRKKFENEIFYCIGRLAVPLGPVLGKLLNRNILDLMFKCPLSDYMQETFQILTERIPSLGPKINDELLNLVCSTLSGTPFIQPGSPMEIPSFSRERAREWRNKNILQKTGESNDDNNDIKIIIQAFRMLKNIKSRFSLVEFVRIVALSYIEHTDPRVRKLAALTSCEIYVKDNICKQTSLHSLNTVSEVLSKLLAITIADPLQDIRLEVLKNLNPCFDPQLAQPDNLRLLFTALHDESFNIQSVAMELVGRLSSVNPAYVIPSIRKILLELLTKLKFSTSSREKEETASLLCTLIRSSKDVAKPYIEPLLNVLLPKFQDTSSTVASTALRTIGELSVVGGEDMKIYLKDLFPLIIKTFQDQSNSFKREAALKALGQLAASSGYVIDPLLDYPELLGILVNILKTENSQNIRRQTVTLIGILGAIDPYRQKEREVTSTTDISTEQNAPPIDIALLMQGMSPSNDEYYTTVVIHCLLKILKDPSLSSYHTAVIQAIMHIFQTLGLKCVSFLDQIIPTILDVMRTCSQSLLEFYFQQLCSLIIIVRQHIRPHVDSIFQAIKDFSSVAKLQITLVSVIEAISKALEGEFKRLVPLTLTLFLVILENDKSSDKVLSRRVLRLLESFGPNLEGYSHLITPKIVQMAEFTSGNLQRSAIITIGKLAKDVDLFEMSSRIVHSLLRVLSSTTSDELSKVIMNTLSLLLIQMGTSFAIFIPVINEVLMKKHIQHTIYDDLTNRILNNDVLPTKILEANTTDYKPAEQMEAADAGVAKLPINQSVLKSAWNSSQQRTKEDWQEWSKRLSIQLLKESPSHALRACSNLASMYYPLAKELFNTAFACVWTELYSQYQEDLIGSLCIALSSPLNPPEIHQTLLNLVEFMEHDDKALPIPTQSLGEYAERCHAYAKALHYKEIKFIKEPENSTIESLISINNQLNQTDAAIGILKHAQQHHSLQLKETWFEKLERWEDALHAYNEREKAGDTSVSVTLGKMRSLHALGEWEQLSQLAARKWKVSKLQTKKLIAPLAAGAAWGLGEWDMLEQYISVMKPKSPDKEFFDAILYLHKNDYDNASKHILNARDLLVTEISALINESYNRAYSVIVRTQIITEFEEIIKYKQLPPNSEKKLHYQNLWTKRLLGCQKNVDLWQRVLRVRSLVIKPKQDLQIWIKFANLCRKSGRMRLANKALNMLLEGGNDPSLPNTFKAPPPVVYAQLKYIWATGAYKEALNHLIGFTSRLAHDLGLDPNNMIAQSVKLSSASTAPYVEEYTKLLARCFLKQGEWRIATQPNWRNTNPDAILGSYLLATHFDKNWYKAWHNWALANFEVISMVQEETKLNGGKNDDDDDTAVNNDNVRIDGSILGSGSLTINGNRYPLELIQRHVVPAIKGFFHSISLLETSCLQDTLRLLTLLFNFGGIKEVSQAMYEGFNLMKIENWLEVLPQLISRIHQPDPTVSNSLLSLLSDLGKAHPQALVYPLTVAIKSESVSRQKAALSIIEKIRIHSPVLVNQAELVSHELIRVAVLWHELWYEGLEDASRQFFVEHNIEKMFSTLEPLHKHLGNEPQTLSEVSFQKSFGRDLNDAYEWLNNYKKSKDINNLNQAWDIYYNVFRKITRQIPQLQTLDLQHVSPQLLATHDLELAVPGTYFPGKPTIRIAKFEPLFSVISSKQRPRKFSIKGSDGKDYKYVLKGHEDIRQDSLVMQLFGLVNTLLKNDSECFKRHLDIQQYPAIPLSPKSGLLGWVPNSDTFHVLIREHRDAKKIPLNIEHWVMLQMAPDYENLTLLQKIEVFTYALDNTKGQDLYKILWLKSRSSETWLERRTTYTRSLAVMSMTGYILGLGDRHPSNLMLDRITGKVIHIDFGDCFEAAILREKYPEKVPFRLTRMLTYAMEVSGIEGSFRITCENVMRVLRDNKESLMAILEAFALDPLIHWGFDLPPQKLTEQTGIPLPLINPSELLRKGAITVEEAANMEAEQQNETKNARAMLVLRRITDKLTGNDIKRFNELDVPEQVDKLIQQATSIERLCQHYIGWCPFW
T1 sequence (Q08921 whole entry partner): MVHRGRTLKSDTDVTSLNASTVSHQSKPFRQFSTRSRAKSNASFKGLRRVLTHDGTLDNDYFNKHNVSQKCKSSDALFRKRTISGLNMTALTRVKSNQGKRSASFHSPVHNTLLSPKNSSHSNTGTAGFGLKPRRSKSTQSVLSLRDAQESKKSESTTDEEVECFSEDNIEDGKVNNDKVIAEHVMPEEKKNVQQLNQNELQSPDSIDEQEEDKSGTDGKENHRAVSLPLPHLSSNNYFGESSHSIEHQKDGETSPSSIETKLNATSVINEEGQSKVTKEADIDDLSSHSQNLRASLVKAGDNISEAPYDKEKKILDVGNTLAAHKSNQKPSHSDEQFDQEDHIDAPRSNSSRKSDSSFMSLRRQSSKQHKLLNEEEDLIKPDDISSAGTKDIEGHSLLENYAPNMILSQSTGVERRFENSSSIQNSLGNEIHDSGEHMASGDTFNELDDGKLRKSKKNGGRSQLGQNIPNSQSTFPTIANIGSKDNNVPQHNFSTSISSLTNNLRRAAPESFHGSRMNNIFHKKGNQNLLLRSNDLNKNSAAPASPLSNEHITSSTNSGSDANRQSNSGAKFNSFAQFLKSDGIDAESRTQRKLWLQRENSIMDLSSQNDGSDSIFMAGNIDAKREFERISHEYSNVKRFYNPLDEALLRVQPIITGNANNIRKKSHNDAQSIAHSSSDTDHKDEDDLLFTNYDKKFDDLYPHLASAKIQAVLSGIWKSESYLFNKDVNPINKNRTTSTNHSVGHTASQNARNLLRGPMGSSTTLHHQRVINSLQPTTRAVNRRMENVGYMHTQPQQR
T1 sequence (P38873 whole entry partner): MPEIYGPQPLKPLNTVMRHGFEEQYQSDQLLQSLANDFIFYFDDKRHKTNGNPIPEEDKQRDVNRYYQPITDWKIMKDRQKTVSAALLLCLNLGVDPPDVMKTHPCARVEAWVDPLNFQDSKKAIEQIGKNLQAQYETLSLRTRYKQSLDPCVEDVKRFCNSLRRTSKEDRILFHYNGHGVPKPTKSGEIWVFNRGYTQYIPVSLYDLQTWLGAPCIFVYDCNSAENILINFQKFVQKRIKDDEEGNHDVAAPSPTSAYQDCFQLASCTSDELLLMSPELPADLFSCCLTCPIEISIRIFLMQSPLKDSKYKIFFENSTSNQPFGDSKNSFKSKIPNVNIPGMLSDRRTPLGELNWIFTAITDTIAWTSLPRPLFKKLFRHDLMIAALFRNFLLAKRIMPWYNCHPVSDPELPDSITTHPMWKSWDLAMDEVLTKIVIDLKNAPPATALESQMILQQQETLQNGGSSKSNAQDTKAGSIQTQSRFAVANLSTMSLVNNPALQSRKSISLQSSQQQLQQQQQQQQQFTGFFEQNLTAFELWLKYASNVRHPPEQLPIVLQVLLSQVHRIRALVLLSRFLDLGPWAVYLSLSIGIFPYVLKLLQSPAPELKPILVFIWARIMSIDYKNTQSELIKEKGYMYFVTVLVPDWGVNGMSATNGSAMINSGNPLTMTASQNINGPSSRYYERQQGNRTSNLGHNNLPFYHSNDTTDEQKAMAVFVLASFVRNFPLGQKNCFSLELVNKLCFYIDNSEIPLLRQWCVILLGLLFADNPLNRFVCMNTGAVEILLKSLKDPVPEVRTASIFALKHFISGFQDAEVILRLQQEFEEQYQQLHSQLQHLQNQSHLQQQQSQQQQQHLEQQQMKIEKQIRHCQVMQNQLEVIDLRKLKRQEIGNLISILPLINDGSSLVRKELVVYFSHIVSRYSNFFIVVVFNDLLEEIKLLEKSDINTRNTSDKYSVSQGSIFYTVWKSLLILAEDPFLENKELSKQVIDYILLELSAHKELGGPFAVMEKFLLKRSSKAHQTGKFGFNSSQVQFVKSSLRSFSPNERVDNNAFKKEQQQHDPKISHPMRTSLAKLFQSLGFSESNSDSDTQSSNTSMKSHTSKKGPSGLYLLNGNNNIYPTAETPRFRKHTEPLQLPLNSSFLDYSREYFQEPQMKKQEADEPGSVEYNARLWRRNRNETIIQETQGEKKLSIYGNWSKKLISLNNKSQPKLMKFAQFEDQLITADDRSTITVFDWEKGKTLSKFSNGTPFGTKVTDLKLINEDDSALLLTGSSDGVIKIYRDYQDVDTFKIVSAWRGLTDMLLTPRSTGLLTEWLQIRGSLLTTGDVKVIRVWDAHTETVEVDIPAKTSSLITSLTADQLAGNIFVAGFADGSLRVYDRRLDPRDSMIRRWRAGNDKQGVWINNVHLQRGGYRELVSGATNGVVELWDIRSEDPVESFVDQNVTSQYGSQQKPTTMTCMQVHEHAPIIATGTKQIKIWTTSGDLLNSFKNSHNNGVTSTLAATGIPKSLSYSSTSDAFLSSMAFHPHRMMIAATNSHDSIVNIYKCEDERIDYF
T1 sequence (P41318 whole entry partner): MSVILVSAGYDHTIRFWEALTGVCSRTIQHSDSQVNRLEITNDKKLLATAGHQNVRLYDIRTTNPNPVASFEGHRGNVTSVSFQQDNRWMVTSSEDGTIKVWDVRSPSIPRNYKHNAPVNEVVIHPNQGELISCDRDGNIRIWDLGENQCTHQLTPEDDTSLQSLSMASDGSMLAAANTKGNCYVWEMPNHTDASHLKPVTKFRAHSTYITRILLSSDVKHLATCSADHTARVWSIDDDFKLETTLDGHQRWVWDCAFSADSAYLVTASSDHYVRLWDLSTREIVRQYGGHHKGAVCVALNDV

In the case of `CC(C)(COP(=O)(O)OP(=O)(O)OCC1OC(n2cnc3c(N)ncnc32)C(O)C1OP(=O)(O)O)C(O)C(=O)NCCC(=O)NCCSC(=O)CC(=O)O` (stereo not shown) [Mal-CoA, malonyl-CoA], the half-inhibitory concentration (IC50) at TORC1 came out at 334 µM; against mTORC1 [1], 230 µM. For the same compound, the Ki at TORC1 turned out to be 760 µM; on mTORC1 [1] (read-out: Ki (ATP-competitive, human mTORC1)), 770 µM. Moreover, the “In vitro TORC1 kinase assay - CoA compounds, relative activity, Mean” value on TORC1 (compound 0.073 mM, normalised to this concentration) was found to be 1; at TORC1 (compound 0.22 mM), 0.8807; at TORC1 (compound 2 mM), 0.6407; on TORC1 (compound 6 mM) it was 0.5014. The “In vitro TORC1 kinase assay - Mal-CoA/ATP competition, relative activity, Mean” value at TORC1 (Mal-CoA 2 mM, ATP 0.015 mM) is on record as 0.1115; at TORC1 (Mal-CoA 2 mM, ATP 0.044 mM), 0.189; on TORC1 (Mal-CoA 2 mM, ATP 0.4 mM) it was 0.6161; on TORC1 (Mal-CoA […], ATP 0.015 mM), 0.1191; on TORC1 (Mal-CoA […], ATP 0.044 mM), 0.2424; at TORC1 (Mal-CoA […], ATP 0.4 mM), 0.6289. For the same compound, the “In vitro mTORC1 assay, p-4E-BP1(T37/46)/4E-BP1, Mean” value on mTORC1 [1] (Fig. 8f, compound 0.01 mM, relative to 0 mM) was determined as 0.741; on mTORC1 [1] (Fig. 8f, compound 0.05 mM, relative to 0 mM) it was 0.7667; on mTORC1 [1] (Fig. 8f, compound 0.1 mM, relative to 0 mM) it was 0.821; at mTORC1 [1] (Fig. 8f, compound 0.5 mM, relative to 0 mM) it was 0.5457; on mTORC1 [1] (Fig. 8f, compound 1 mM, relative to 0 mM), 0.5376; at mTORC1 [1] (Fig. 8f, compound 2.5 mM, relative to 0 mM), 0.4196. Besides, the “In vitro mTORC1 assay, p-4E-BP1(T37/46)/4E-BP1, Mean” value at mTORC1 [1] (Fig. 8f, compound 5 mM, relative to 0 mM) stood at 0.4175; at mTORC1 [1] (Fig. 8j, Mal-CoA 2 mM, ATP 0 uM, relative to control at 500 uM ATP), 0.1107; on mTORC1 [1] (Fig. 8j, Mal-CoA 2 mM, ATP 25 uM, relative to control at 500 uM ATP), 0.133; at mTORC1 [1] (Fig. 8j, Mal-CoA 2 mM, ATP 100 uM, relative to control at 500 uM ATP), 0.267; on mTORC1 [1] (Fig. 8j, Mal-CoA 2 mM, ATP 500 uM, relative to control at 500 uM ATP) it was 0.681; at mTORC1 [1] (Fig. 8j, Mal-CoA 2 mM, ATP 2000 uM, relative to control at 500 uM ATP) it was 1.021. For the same compound, at mTORC1 [1] (Fig. 8j, Mal-CoA 2 mM, ATP 5000 uM, relative to control at 500 uM ATP), the “In vitro mTORC1 assay, p-4E-BP1(T37/46)/4E-BP1, Mean” value is listed as 1.149.
For the compound `C/C=C/C/C=C/CCC(=O)[C@H]1O[C@H]1C(N)=O` [cerulenin], the results for the “GFP/Adh1 (relative Mal-CoA levels), Mean” value with Mal-CoA levels (20 μM cerulenin 2h), in the experiment with Mal-CoA levels (20 μM cerulenin 3h) and with Mal-CoA levels (20 μM cerulenin 4h) were 2.242, 5.039 and 7.957, respectively. In experiment [2] (ED Fig. 6c, relative to Luc), the “Mal-K/Tubulin, Mean” value turned out to be 1.769. In addition, the “total protein malonylation (Mal-K immunoblot)” value in experiment [2] (HEK293FT cells, cerulenin treatment) is listed as “detectable increase”. Also, the “mTORC1 activity in MCF-7” value in the experiment on mTORC1 [3] is “downregulates”. In experiment [4] (4 h cerulenin), the “FASN, ACC1 and mTOR total protein levels” value is given as “not affected”. Moreover, in experiment [4] (ED Fig. 3l, relative to DMSO), the “FASN/Tubulin, Mean” value worked out at 1.005. For the same compound, the “ACC1/Tubulin, Mean” value in experiment [4] (ED Fig. 3m, relative to DMSO) amounted to 1.011. Moreover, in experiment [4] (ED Fig. 3n, relative to DMSO), the “mTOR/Tubulin, Mean” value is listed as 1.067. In experiment [5], the “RagC/LAMP2 colocalization (Manders' coefficient), Mean” value was 0.5276. Further, the “lysine malonylation of immunopurified human FASN” value in experiment [6] (cerulenin-treated (50 μM, 4 h) vs control) is reported as “malonylation increasing further”. In addition, the “malonylation of immunopurified human mTOR” value in experiment [6] (control or cerulenin-treated (50 μM, 4 h)) is reported as “unable to detect malonylation”.

As usually defined, the IC50 is the concentration at which inhibition is half-maximal. The Ki is a measure of affinity in units of concentration, obtained from inhibition or displacement.
